The values below come from ChEMBL document CHEMBL5576062 (Bioorg Med Chem Lett, 2024).

Active and inactive are the calls of the source. The calls are words filed in the database; no cut-off is given here.

System in one test: not listed separately
As to the kind of experiment: Binding affinity to Zinc ion assessed as metal chelating activity.
`NC(Cc1ccc(Cl)cc1Cl)C(=O)N1Cc2ccccc2C1` (stereo not given): the outcome was inactive.

System in a further test: not listed separately
As to the kind of experiment: Binding affinity to Zinc ion assessed as metal chelating activity at approximately 1 uM.
Take `COc1ccc(Cn2ccc3ccc(C(=O)NO)cc32)cc1`: the result was Active.

The target of another test is T1, Histone deacetylase 8 (Homo sapiens, UniProt Q9BY41).
T1 sequence (Q9BY41 whole entry): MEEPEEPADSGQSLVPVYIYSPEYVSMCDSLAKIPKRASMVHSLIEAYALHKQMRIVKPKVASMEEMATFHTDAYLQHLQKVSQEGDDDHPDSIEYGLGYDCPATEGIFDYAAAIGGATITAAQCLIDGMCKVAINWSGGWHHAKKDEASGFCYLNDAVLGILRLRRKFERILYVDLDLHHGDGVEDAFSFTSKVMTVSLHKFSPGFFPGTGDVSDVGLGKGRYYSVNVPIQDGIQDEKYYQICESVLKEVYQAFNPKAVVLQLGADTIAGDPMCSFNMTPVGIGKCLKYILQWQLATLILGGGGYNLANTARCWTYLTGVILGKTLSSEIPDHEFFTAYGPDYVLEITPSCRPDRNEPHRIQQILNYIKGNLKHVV
As to the kind of experiment: Inhibition of HDAC8 (unknown origin) by SAMDI high throughput mass spectrometry.
Take `COc1ccc(Cn2ccc3ccc(C(=O)c4cc(C)on4)cc32)cc1`: the 50% inhibitory concentration (IC50) is 200 µM.

`COc1ccc(Cn2ccc3ccc(C(=O)NS(=O)(=O)N(C)C)cc32)cc1` showed a 50% inhibitory concentration (IC50) of 320 µM.

For `COc1ccc(Cn2ccc3ccc(C(=O)Nc4ccccc4SC)cc32)cc1`, 360 µM corresponded to half-maximal inhibition (IC50).

Regarding `COc1ccc(Cn2ccc3ccc(NC(=O)c4ccccn4)cc32)cc1`, the IC50 came to 490 µM.

Turning to `COc1ccc(Cn2ccc3ccc(NC(=O)c4ccccc4SC)cc32)cc1`, 340 µM corresponded to half-maximal inhibition (IC50).

`COc1ccc(Cn2ccc3ccc(C(=O)Nc4ccccc4N)cc32)cc1` gave an IC50 of 150 µM.

Take `COc1ccc(Cn2ccc3ccc(C(=O)NS(C)(=O)=O)cc32)cc1`: the IC50 was over 1000 µM.

`COc1ccc(Cn2ccc3ccc(NC(=O)c4ccccc4O)cc32)cc1` showed an IC50 of 360 µM.

As to `COc1ccc(Cn2ccc3ccc(C(=O)Nc4ccccc4O)cc32)cc1`, the midpoint of inhibition, the IC50, lay at 220 µM.

The molecule `CCC(=O)c1ccc2ccn(Cc3ccc(OC)cc3)c2c1` displayed an IC50 of 120 µM.

The molecule `COc1ccc(Cn2ccc3ccc(NC(=O)c4ccccc4N)cc32)cc1` displayed a half-maximal inhibitory concentration (IC50) of 130 µM.

Consider `COc1ccc(Cn2ccc3ccc(C(=O)C(F)(F)F)cc32)cc1`, for which the 50% inhibitory concentration (IC50) was determined as 570 µM.

Regarding `COc1ccc(Cn2ccc3ccc(C(=O)NCC(C)O)cc32)cc1` (stereo not given), the IC50 is 890 µM.

As for `COc1ccc(Cn2ccc3ccc(-c4nn[nH]n4)cc32)cc1`, the IC50 was over 1000 µM.

On to `COc1ccc(Cn2ccc3ccc(C(=O)NCCO)cc32)cc1`, for which the IC50 is 170 µM.

`COc1ccc(Cn2ccc3ccc(-c4noc(C(F)(F)F)n4)cc32)cc1` showed an IC50 of over 1000 µM.

Molecule `NC(Cc1ccc(Cl)cc1Cl)C(=O)N1Cc2ccccc2C1` (stereo not given) came in with an IC50 of 7.9 µM.

Turning to `COc1ccc(Cn2ccc3ccc(/C(N)=N/O)cc32)cc1`, half-maximal inhibition (IC50) was put at 340 µM.

Turning to `COc1ccc(Cn2ccc3ccc(C(=O)c4nccs4)cc32)cc1`, the IC50 stood at 210 µM.

Molecule `COc1ccc(Cn2ccc3ccc(C(=O)N/N=C\c4ccccc4O)cc32)cc1` displayed an IC50 of over 1000 µM.

For `COc1ccc(Cn2ccc3ccc(-c4noc(=S)[nH]4)cc32)cc1`, the half-inhibitory concentration (IC50) was 330 µM.

As for `CCC(=O)Cc1ccc2ccn(Cc3ccc(OC)cc3)c2c1`, it took 240 µM to reach half-maximal inhibition (IC50).

Consider `COc1ccc(Cn2ccc3ccc(-c4noc(=O)[nH]4)cc32)cc1`, for which half-maximal inhibition (IC50) required 140 µM.
